Format: in vivo, mice
[1] = cis-platin plus DPH, repetitive treatment

Experimental: Since the protective effect of DPH for the cochlea may be mediated by blocking an ion transporter being relevant for the physiological function of the target cells, an additional experiment was done to verify whether a treatment with DPH alone alters the hearing capability of the mice. For this, five animals measured for their basal auditory sensitivity with the BAER test were treated 24 h later with a single dose of DPH (57 mg/kg), and were re-examined one hour later again by the BAER test.

Which “side effects of prolonged treatment” value (DPH alone, up to eight applications) does the source give for CN(C)CCOC(c1ccccc1)c1ccccc1 [DPH, diphenhydramine] here?
Its value is “no obvious side effects”.

What about the “general health status versus cis-platin alone group” value [1] of the same compound?
Its value is “better”.

What about the “weight loss versus cis-platin alone group” value [1] of the same compound?
The value was “less severe”.
